Measurements: patent publication US10023902B2, “Methods for detecting enzyme activity using fluorescence lifetime imaging” (Purdue Research Foundation, priority 2012, dated 2018)
Residues, ends and D or L forms follow the SMILES beside them. No end group written: not given here. *: point of attachment. X1 = C[N+]1=C(C=CC=CC=C2N(CCCCCC(=O)NCCN3C(=O)CC(*)C3=O)c3ccccc3C2(C)C)C(C)(C)c2ccccc21; Cy5 = Cy5 fluorophore label on the Cys side chain

How the values were obtained:
Abl kinase = assay: Biosensor Cy5 fluorescence lifetime analysis in live MEFs (FLIM); format: cell-based, mouse; details: control MEFs expressing Abl kinase, 50 nM, 24 h; non-parametric ANOVA, P<0.05
Method: With reference to FIG. 3, WT MEF cells (unless otherwise indicated) were cultured on cover slips and incubated with the biosensor peptide or a control (as indicated, 50 nM for each) for 24 h, then imaged using the FLIM system. Data were extracted from raw FLIM images and represented as lifetime maps of autofluorescence, Cy5 only, Abl-TAT in Abl (−/−) MEFs, Abl-TAT in WT MEFs, Abl-F-mutant, Abl-phospho. With reference to FIG. 3A, fluorophore lifetime per cell was averaged for at least 20 cells in 3-5 replicate experiments and plotted as a distribution of lifetimes observed in each condition. Error bars represent standard error of the mean for each lifetime value. […] Error bars represent SEM.
Cover slips were washed with PBS and imaged immediately.
Average lifetimes per cell for multiple cells were calculated and plotted to show the distribution of lifetimes observed for the biosensor and each control (FIG. 3G). The distributions were determined to be non-Gaussian, so non-parametric ANOVA with a Dunn's post-test was used to evaluate statistical significance (P<0.05) for differences in the mean lifetimes. […] These experiments confirmed that the increase in Cy5 lifetime was specific and due to Abl-dependent phosphorylation of the biosensor peptide on tyrosine. […]

Syk kinase = assay: FLIM detection of Syk kinase activity with SAStide-TAT biosensor in MCF7 breast cancer cells; format: cell-based
MEFs = details: FCS, Cy5 alone vs biosensor
Method: Sequestration of the biosensor in endosomes was tested by staining for an endosomal marker. […] Peptide degradation, a potential issue in some cell types, was also examined.

## CCN1/C(=C/C=C/C=C/C2=[N+](CCCCCC(=O)O)c3ccc(S(=O)(=O)O)cc3C2(C)C)C(C)(C)c2cc(S(=O)(=O)[O-])ccc21 [Cy5, reference compound]
Abl kinase
  mean Cy5 fluorescence lifetime per cell: significantly lower mean lifetimes than both Abl-TAT in MEFs expressing Abl kinase and Abl-phospho

## Abl-F-mutant: analog having a phenylalanine substitution for the tyrosine residue of the Abltide-TAT biosensor, SEQ ID NO:3 (EAIYAAP)
Abl kinase
  mean Cy5 fluorescence lifetime per cell: significantly lower mean lifetimes than both Abl-TAT in MEFs expressing Abl kinase and Abl-phospho

## DEEDYEEPDEPGGCCy5GGRKKRRQRRRPQ (DEEDYEEPDEPGGC(Cy5)GGRKKRRQRRRPQ) [SAStide-TAT, Cy5-labeled Syk substrate peptide]
Syk kinase; active Syk-expressing cells, pervanadate (Syk activation conditions), co-localizes with decreased EGFP lifetime
  Cy5 lifetime shift of biosensor: increased Cy5 lifetime

## COc1cc(Nc2ncc(F)c(Nc3ccc4c(n3)N(COP(=O)(O)O)C(=O)C(C)(C)O4)n2)cc(OC)c1OC [fostamatinib, reference compound]
Syk kinase; Syk +/+ cells pre-treated with SAStide-TAT-Cy5 biosensor and inhibitor, 1 hour
  regions of increased Cy5 lifetime after inhibitor pre-treatment: no regions of increased lifetime were observed

## CC[C@H](C)[C@H](NC(=O)[C@H](C)NC(=O)[C@H](CCC(=O)O)NC(=O)CNC(=O)CN)C(=O)N[C@@H](Cc1ccc(O)cc1)C(=O)N[C@@H](C)C(=O)N[C@@H](C)C(=O)N1CCC[C@H]1C(=O)N[C@@H](CSC1CC(=O)N(CCNC(=O)CCCCCN2C(=CC=CC=CC3=[N+](C)c4ccccc4C3(C)C)C(C)(C)c3ccccc32)C1=O)C(=O)NCC(=O)NCC(=O)N[C@@H](CCCNC(=N)N)C(=O)N[C@@H](CCCCN)C(=O)N[C@@H](CCCCN)C(=O)N[C@@H](CCCNC(=N)N)C(=O)N[C@@H](CCCNC(=N)N)C(=O)N[C@@H](CCC(N)=O)C(=O)N[C@@H](CCCNC(=N)N)C(=O)N[C@@H](CCCNC(=N)N)C(=O)N[C@@H](CCCNC(=N)N)C(=O)N1CCC[C@H]1C(=O)N[C@@H](CCC(N)=O)C(=O)O (some centres unmarked) [Abl-TAT] (H-GGEAIYAAPC(X1)GGRKKRRQRRRPQ-OH)
MEFs
  peptide degradation to free Cy5: not degraded to free Cy5
